Assay results taken from patent US20160083357A1, “NOVEL TETRAZOLONE DERIVATIVES” (Hoffmann-La Roche Inc., priority 2013, published 2016).
Where two headings read alike, the source gives them in different places.

How the values were obtained:
human CB2 receptors = target: T1, human CB2 receptors (Homo sapiens, UniProt P34972); assay: cAMP assay, human CB2; assay type: cell-based
T1 construct: expressed in transfected cells; host or cells: CHO cells
Experimental: (§1) CHO cells expressing human CB1 or CB2 receptors are seeded 17-24 hours prior to the experiment 50.000 cells per well in a black 96 well plate with flat clear bottom (Corning Costar #3904) in DMEM (Invitrogen No. 31331), lx HT supplement, with 10% fetal calf serum and incubated at 5% CO2 and 37° C. in a humidified incubator. The growth medium was exchanged with Krebs Ringer Bicarbonate buffer with 1 mM IBMX and incubated at 30° C. for 30 min. Compounds were added to a final assay volume of 100 μl and incubated for 30 min at 30° C. Using the cAMP-Nano-TRF detection kit the assay (Roche Diagnostics) was stopped by the addition of 50 μl lysis reagent (Tris, NaCl, 1.5% Triton X100, 2.5% NP40, 10% NaN3) and 50 μl detection solutions (20 μM mAb Alexa700-cAMP 1:1, and 48 μM Ruthenium-2-AHA-cAMP) and shaken for 2 h at room temperature. The time-resolved energy transfer is measured by a TRF reader (Evotec Technologies GmbH), equipped with a ND:YAG laser as excitation source. The plate is measured twice with the excitation at 355 nm and at the emission with a delay of 100 ns and a gate of 100 ns, total exposure time 10 s at 730 (bandwidth 30 nm) or 645 nm (bandwidth 75 nm), respectively. The FRET signal is calculated as follows: FRET=T730-Alexa730-P(T645-B645) with P=Ru730-B730/Ru645-B645, where T730 is the test well measured at 730 nM, T645 is the test well measured at 645 nm, B730 and B645 are the buffer controls at 730 nm and 645 nm, respectively. cAMP content is determined from the function of a standard curve spanning from 10 μM to 0.13 nM cAMP.
(§2) EC50 values were determined using Activity Base analysis (ID Business Solution, Limited). The EC50 values for a wide range of cannabinoid agonists generated from this assay were in agreement with the values published in the scientific literature.

human CB1 receptors = target: T2, human CB1 receptors (Homo sapiens, UniProt P21554); assay: cAMP assay, human CB1; assay type: cell-based
T2 construct: expressed in transfected cells; host or cells: CHO cells
Experimental: as §1, §2

[1] = functional cAMP assay, CHO cells expressing human CB2, read-out: Ec50: CB2 - hu cAMP
[2] = functional cAMP assay, CHO cells expressing human CB1, read-out: Ec50: CB1 - hu cAMP

T1 sequence (P34972 whole entry): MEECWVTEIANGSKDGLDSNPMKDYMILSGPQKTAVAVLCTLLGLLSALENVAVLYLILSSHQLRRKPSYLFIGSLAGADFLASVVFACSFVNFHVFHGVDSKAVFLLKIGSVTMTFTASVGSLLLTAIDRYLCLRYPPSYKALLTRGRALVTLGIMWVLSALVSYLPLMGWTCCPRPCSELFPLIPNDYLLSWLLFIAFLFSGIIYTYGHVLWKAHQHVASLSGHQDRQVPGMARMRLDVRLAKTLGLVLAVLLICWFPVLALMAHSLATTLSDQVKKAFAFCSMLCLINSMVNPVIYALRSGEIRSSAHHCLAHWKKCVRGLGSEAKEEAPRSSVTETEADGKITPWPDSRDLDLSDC
T2 sequence (P21554 whole entry): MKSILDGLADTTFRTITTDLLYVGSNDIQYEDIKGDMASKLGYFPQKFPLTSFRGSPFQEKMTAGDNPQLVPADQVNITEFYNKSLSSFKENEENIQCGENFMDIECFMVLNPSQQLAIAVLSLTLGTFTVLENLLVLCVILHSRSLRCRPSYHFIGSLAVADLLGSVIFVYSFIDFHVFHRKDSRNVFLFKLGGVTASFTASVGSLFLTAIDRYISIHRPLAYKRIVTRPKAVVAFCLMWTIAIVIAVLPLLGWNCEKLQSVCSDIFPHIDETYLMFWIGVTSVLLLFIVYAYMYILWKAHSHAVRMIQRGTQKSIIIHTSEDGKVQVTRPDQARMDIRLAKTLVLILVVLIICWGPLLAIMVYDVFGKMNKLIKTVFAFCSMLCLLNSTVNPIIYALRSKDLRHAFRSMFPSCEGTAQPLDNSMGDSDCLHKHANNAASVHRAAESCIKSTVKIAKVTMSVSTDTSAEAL

| Structure (SMILES) | EC50 (human CB2 receptors; [1]) | EC50 (human CB1 receptors; [2]) | EC50 (human CB2 receptors) | EC50 (human CB1 receptors) |
| --- | --- | --- | --- | --- |
| COc1ccc(CCN(C)C(=O)n2nnn(-c3cccc(F)c3)c2=O)cc1OC [Example 1, 4-(3-Fluoro-phenyl)-5-oxo-4,5-dihydro-tetrazole-1-carboxylic acid [2-(3,4-dimethoxy-phenyl)-ethyl]-methyl-amide] | 0.0006 µM | > 10 µM | – | – |
| CN(CCC#N)C(=O)n1nnn(-c2cccc(F)c2)c1=O [Example 2, 4-(3-Fluoro-phenyl)-5-oxo-4,5-dihydro-tetrazole-1-carboxylic acid (2-cyano-ethyl)-methyl-amide] | 0.0115 µM | > 10 µM | – | – |
| NC(=O)C1CCCN(C(=O)n2nnn(-c3cccc(F)c3)c2=O)C1 (stereo not drawn) [Example 3, 1-[4-(3-Fluoro-phenyl)-5-oxo-4,5-dihydro-tetrazole-1-carbonyl]-piperidine-3-carboxylic acid amide] | 0.0159 µM | > 10 µM | – | – |
| O=C(N1CCOCC1)n1nnn(-c2cccc(F)c2)c1=O [Example 4, 1-(3-Fluoro-phenyl)-4-(morpholine-4-carbonyl)-1,4-dihydro-tetrazol-5-one] | 0.003 µM | > 10 µM | – | – |
| CN(CCc1ccccc1)C(=O)n1nnn(-c2cccc(F)c2)c1=O [Example 5, 4-(3-Fluoro-phenyl)-5-oxo-4,5-dihydro-tetrazole-1-carboxylic acid methyl-phenethyl-amide] | 0.0008 µM | > 10 µM | – | – |
| CCN(Cc1ccncc1)C(=O)n1nnn(-c2cccc(F)c2)c1=O [Example 6, 4-(3-Fluoro-phenyl)-5-oxo-4,5-dihydro-tetrazole-1-carboxylic acid ethyl-pyridin-4-ylmethyl-amide] | 0.0008 µM | > 10 µM | – | – |
| CCN(CCOC)C(=O)n1nnn(-c2cccc(F)c2)c1=O [Example 7, 4-(3-Fluoro-phenyl)-5-oxo-4,5-dihydro-tetrazole-1-carboxylic acid ethyl-(2-methoxy-ethyl)-amide] | – | – | 0.0027 µM | > 10 µM |
| CN(CCCc1ccccc1)C(=O)n1nnn(-c2cccc(F)c2)c1=O [Example 8, 4-(3-Fluoro-phenyl)-5-oxo-4,5-dihydro-tetrazole-1-carboxylic acid methyl-(3-phenyl-propyl)-amide] | 0.0012 µM | > 10 µM | – | – |
| O=C(N1CCCC1Cc1ccccc1)n1nnn(-c2cccc(F)c2)c1=O (stereo not drawn) [Example 9, 1-(2-Benzyl-pyrrolidine-1-carbonyl)-4-(3-fluoro-phenyl)-1,4-dihydro-tetrazol-5-one] | 0.0041 µM | > 10 µM | – | – |
| O=C(N1CCCC1c1ccc(F)cc1)n1nnn(-c2cccc(F)c2)c1=O (stereo not drawn) [Example 10, 1-(3-Fluoro-phenyl)-4-[2-(4-fluoro-phenyl)-pyrrolidine-1-carbonyl]-1,4-dihydro-tetrazol-5-one] | 0.0059 µM | > 10 µM | – | – |
| O=C(N1CCc2cc(F)ccc2C1)n1nnn(-c2cccc(F)c2)c1=O [Example 11, 1-(6-Fluoro-3,4-dihydro-1H-isoquinoline-2-carbonyl)-4-(3-fluoro-phenyl)-1,4-dihydro-tetrazol-5-one] | 0.0789 µM | > 10 µM | – | – |
| CCN(Cc1ccccc1)C(=O)n1nnn(-c2cccc(F)c2)c1=O [Example 12, 4-(3-Fluoro-phenyl)-5-oxo-4,5-dihydro-tetrazole-1-carboxylic acid benzyl-ethyl-amide] | – | – | 0.0006 µM | > 10 µM |
| CC[C@H](C)[C@@H](C(=O)OC)N(C)C(=O)n1nnn(-c2cccc(F)c2)c1=O [Example 13, (2S,3S)-2-{[4-(3-Fluoro-phenyl)-5-oxo-4,5-dihydro-tetrazole-1-carbonyl]-methyl-amino}-3-methyl-pentanoic acid methyl ester] | 0.0112 µM | > 10 µM | – | – |
| O=c1n(Cc2ccc(F)cc2)nnn1-c1cccc(F)c1 [Example 14, 1-(4-Fluoro-benzyl)-4-(3-fluoro-phenyl)-1,4-dihydro-tetrazol-5-one] | 1.18 µM | > 10 µM | – | – |
| CC(C)(C)OC(=O)N1CCC(n2nnn(-c3cccc(F)c3)c2=O)CC1 [Example 15, 4-[4-(3-Fluoro-phenyl)-5-oxo-4,5-dihydro-tetrazol-1-yl]-piperidine-1-carboxylic acid tert-butyl ester] | 3 µM | > 10 µM | – | – |
| CCOC(=O)C(C)(C)n1nnn(-c2cccc(F)c2)c1=O [Example 16, 2-[4-(3-Fluoro-phenyl)-5-oxo-4,5-dihydro-tetrazol-1-yl]-2-methyl-propionic acid ethyl ester] | 0.327 µM | > 10 µM | – | – |
| Cn1c(Cn2nnn(-c3cccc(F)c3)c2=O)nnc1S(C)(=O)=O [Example 17, 1-(3-Fluoro-phenyl)-4-(5-methanesulfonyl-4-methyl-4H-[1,2,4]triazol-3-ylmethyl)-1,4-dihydro-tetrazol-5-one] | 0.898 µM | > 10 µM | – | – |
| Cn1nccc1C1CCCN1C(=O)n1nnn(-c2cccc(F)c2)c1=O (stereo not drawn) [Example 18, 1-(3-Fluoro-phenyl)-4-[2-(2-methyl-2H-pyrazol-3-yl)-pyrrolidine-1-carbonyl]-1,4-dihydro-tetrazol-5-one] | 0.219 µM | > 10 µM | – | – |
| Cn1ccc(C2CCCN2C(=O)n2nnn(-c3cccc(F)c3)c2=O)n1 (stereo not drawn) [Example 19, 1-(3-Fluoro-phenyl)-4-[2-(1-methyl-1H-pyrazol-3-yl)-pyrrolidine-1-carbonyl]-1,4-dihydro-tetrazol-5-one] | 0.025 µM | > 10 µM | – | – |
| Cc1cc(C2CCCN2C(=O)n2nnn(-c3cccc(F)c3)c2=O)on1 (stereo not drawn) [Example 20, 1-(3-Fluoro-phenyl)-4-[2-(3-methyl-isoxazol-5-yl)-pyrrolidine-1-carbonyl]-1,4-dihydro-tetrazol-5-one] | 0.0069 µM | > 10 µM | – | – |
| COC[C@@H]1CCCN1C(=O)n1nnn(-c2cccc(F)c2)c1=O [Example 21, 1-(3-Fluoro-phenyl)-4-((S)-2-methoxymethyl-pyrrolidine-1-carbonyl)-1,4-dihydro-tetrazol-5-one] | 0.0975 µM | > 10 µM | – | – |
| NC(=O)[C@@H]1CCCN1C(=O)n1nnn(-c2cccc(F)c2)c1=O [Example 22, (S)-1-[4-(3-Fluoro-phenyl)-5-oxo-4,5-dihydro-tetrazole-1-carbonyl]-pyrrolidine-2-carboxylic acid amide] | 1.92 µM | > 10 µM | – | – |
| CC(=O)NC1CCN(C(=O)n2nnn(-c3cccc(F)c3)c2=O)C1 (stereo not drawn) [Example 23, N-{1-[4-(3-Fluoro-phenyl)-5-oxo-4,5-dihydro-tetrazole-1-carbonyl]-pyrrolidin-3-yl}-acetamide] | 0.0314 µM | > 10 µM | – | – |
| COC(=O)C1CN(C(=O)n2nnn(-c3cccc(F)c3)c2=O)C1 [Example 24, 1-[4-(3-Fluoro-phenyl)-5-oxo-4,5-dihydro-tetrazole-1-carbonyl]-azetidine-3-carboxylic acid methyl ester] | 0.122 µM | > 10 µM | – | – |
| Cc1noc(C2CCCN2C(=O)n2nnn(-c3cccc(F)c3)c2=O)n1 (stereo not drawn) [Example 25, 1-(3-Fluoro-phenyl)-4-[2-(3-methyl-[1,2,4]oxadiazol-5-yl)-pyrrolidine-1-carbonyl]-1,4-dihydro-tetrazol-5-one] | 0.026 µM | > 10 µM | – | – |
| CC(=O)NC1CCN(C(=O)n2nnn(-c3cccc(F)c3)c2=O)CC1 [Example 26, N-{1-[4-(3-Fluoro-phenyl)-5-oxo-4,5-dihydro-tetrazole-1-carbonyl]-piperidin-4-yl}-acetamide] | 0.0178 µM | > 10 µM | – | – |
| O=C(CN1CCN(C(=O)n2nnn(-c3cccc(F)c3)c2=O)CC1)N1CCCC1 [Example 27, 1-(3-Fluoro-phenyl)-4-[4-(2-oxo-2-pyrrolidin-1-yl-ethyl)-piperazine-1-carbonyl]-1,4-dihydro-tetrazol-5-one] | 0.0071 µM | > 10 µM | – | – |
| CC1(C)CCN(C(=O)n2nnn(-c3cccc(F)c3)c2=O)CC1 [Example 28, 1-(4,4-Dimethyl-piperidine-1-carbonyl)-4-(3-fluoro-phenyl)-1,4-dihydro-tetrazol-5-one] | 0.0008 µM | > 10 µM | – | – |
| O=C(N1CCS(=O)(=O)CC1)n1nnn(-c2cccc(F)c2)c1=O [Example 29, 1-(1,1-Dioxo-1λ6-thiomorpholine-4-carbonyl)-4-(3-fluoro-phenyl)-1,4-dihydro-tetrazol-5-one] | 0.0416 µM | > 10 µM | – | – |
| O=C(N1CCN(c2cnccn2)CC1)n1nnn(-c2cccc(F)c2)c1=O [Example 30, 1-(3-Fluoro-phenyl)-4-(2,3,5,6-tetrahydro-[1,2′]bipyrazinyl-4-carbonyl)-1,4-dihydro-tetrazol-5-one] | 0.205 µM | > 10 µM | – | – |
